Common to all, as to type: cell-based
Assay [1] concerns the target T1, sulfonylurea receptor 1 (SUR1) (Homo sapiens, UniProt Q09428).
T1 construct: gene ABCC8; human FLAG-tagged SUR1 (f-SUR1) coexpressed with human Kir6.2 in COSm6 cells; with Kir6.2 (KCNJ11)
Put plainly: Rb+ efflux inhibition in cells after […] overnight treatment and washout.

In assay [2] the target is T2, sulfonylurea receptor 1 (SUR1) (Homo sapiens, UniProt Q09428, Y124F).
T2 construct: gene ABCC8; human FLAG-tagged SUR1 (f-SUR1) coexpressed with human Kir6.2 in COSm6 cells; with Kir6.2 (KCNJ11)
T2 sequence (Q09428 whole entry Y124F): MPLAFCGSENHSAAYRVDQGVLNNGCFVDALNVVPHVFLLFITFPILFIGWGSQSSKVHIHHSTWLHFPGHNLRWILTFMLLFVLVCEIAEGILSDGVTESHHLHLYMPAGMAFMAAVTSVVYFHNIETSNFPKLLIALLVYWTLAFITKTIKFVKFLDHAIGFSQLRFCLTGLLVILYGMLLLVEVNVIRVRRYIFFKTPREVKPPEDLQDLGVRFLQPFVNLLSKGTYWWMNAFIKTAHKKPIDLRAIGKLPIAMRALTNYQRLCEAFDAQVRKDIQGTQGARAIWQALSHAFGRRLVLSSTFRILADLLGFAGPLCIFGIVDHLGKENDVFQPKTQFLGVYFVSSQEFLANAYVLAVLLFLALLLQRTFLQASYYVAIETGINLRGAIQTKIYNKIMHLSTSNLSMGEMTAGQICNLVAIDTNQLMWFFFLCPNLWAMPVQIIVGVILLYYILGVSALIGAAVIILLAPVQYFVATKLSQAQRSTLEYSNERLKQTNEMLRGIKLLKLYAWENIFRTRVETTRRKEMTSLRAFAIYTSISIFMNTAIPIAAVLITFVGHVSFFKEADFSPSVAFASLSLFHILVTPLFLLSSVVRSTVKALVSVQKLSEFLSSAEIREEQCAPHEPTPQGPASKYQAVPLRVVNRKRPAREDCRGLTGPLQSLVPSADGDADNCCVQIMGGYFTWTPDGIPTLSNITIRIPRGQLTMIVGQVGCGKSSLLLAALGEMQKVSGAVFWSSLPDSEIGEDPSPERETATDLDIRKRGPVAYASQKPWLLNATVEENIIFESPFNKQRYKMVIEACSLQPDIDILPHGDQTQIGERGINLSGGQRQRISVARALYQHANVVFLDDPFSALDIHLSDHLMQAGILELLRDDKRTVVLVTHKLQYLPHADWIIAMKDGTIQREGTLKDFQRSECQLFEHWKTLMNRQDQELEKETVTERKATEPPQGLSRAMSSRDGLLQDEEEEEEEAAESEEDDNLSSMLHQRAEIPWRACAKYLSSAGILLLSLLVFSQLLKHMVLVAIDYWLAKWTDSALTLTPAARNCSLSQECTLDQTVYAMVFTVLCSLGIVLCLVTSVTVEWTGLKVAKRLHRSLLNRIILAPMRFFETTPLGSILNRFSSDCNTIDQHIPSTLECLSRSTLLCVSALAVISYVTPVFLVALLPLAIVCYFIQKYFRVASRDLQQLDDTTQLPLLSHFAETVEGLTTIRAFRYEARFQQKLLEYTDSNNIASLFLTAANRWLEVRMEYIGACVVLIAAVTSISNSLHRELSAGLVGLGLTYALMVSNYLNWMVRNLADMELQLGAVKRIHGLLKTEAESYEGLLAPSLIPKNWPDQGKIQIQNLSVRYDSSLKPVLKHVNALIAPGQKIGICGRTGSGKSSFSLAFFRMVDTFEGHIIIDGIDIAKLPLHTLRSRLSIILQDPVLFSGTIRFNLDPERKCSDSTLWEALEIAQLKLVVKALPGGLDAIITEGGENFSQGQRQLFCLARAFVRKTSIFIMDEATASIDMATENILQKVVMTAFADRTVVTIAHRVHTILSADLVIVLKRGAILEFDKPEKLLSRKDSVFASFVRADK
T2 sequence (Q14654 whole entry, further chain): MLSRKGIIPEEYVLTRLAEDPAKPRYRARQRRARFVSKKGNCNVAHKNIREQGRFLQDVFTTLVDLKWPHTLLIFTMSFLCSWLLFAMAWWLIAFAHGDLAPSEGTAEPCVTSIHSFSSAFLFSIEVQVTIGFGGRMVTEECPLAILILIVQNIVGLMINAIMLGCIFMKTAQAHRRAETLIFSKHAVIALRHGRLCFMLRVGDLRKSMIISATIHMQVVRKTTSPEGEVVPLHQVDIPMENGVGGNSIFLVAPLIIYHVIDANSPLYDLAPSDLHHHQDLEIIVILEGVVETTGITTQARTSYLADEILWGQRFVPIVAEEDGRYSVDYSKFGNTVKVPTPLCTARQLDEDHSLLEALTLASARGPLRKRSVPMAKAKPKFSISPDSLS
The assay can be described thus: inside-out patch-clamp dose-response.

Assay [3] has as its target T1, sulfonylurea receptor 1 (SUR1). Put plainly: inside-out patch-clamp dose-response. Background: In patch-clamp work, channel activity is measured electrically.
Assay [4] concerns the target T3, sulfonylurea receptor 1 (SUR1) (Homo sapiens, UniProt Q09428, W143R).
T3 construct: gene ABCC8; human FLAG-tagged SUR1 (f-SUR1) coexpressed with human Kir6.2 in COSm6 cells; with Kir6.2 (KCNJ11)
The assay can be described thus: pharmacochaperone rescue in cells at […] (western blot, Rb+ efflux). On the technique in general: A western blot detects proteins with antibodies after separation by electrophoresis.

Each structure is given as a SMILES string.

T1 sequence (Q09428 whole entry): as the sequence (Q09428 whole entry Y124F) above, with F124Y counted along it
T1 sequence (Q14654 whole entry partner): as the sequence (Q14654 whole entry, further chain) above
T3 sequence (Q09428 whole entry W143R): as the sequence (Q09428 whole entry Y124F) above, with F124Y, W143R counted along it
T3 sequence (Q14654 whole entry partner): as the sequence (Q14654 whole entry, further chain) above

`COc1ccc(Cl)cc1C(=O)NCCc1ccc(S(=O)(=O)NC(=O)NC2CCCCC2)cc1` [GBC, glibenclamide]: the “Rb+ efflux inhibition in cells after 10 μM overnight treatment and washout” value in assay [1] was “This reduction is due to GBC inhibition of channels already present at the cell surface”.
`Nc1ncnc2c1ncn2[C@@H]1O[C@H](COP(=O)(O)OP(=O)(O)O)[C@@H](O)[C@H]1O` [MgADP]: the EC50 in assay [2] is 224 ± 47.9 µM; in assay [3], 62.2 ± 18.8 µM.
Take `CCCCNC(=O)NS(=O)(=O)c1ccc(C)cc1` [Tolb, tolbutamide]: the “pharmacochaperone rescue in cells at 200 μM (western blot, Rb+ efflux)” value in assay [4] was “N32K, P133R, W143R, and Y230C mutations showed clear albeit variable response to the three pharmacochaperones”.

What is called EC50 is the concentration that produces a half-maximal response.

The record behind these values is article PMC12677052, “Identification and rescue of congenital hyperinsulinism-associated ABCC8 mutations that impair KATP channel trafficking” (The Journal of Biological Chemistry, 2025).
